Key:
Assay type in all cases: cell-based
[1] = target: T1, dTAG-HA SLC35B2 (Homo sapiens, UniProt Q8TB61+Q96SW2); assay: Targeted degradation of dTAG-tagged SLC35B2 (western blot); details: HAP1, 0.5 µM, 24, 48 or 72 hours
T1 construct: expressed in transfected cells
Description: (§1) (C)HAP1 cells expressing dTAG-HA SLC1A5, 2A3, 30A9, 35B2, MTCH2, and 33A1 were treated for 24 hours with 0.5 µM of dTAG7 or dTAG13, as indicated. HAP1 cells expressing dTAG-HA SLC2A1 and 16A1 were treated for 24 hrs with 0.5 µM of dTAG7. HAP1 cell lines expressing dTAG-HA SLC39A7, dTAG-HA SLC4A4, and SLC7A3-dTAG-HA were treated for 48 hrs with 0.5 µM of dTAG13.
(§2) SLC1A5, SLC2A1, SLC2A3, SLC16A1, SLC38A1, SLC38A2 were obtained as gateway-compatible pENTR/pDONR vectors from the Harvard PlasmID Repository. SLC39A7 was obtained from Dharmacon, GE Healthcare. The following vectors were synthesized by Genescript: SLC4A4, SLC7A3, SLC38A9, SLC25A1, SLC9A1, SLC9A2, SLC9A3, SLC9A4, SLC9A5, SLC9A6, SLC9A7, SLC9A8, and SLC9B2. […]
(§3) For immunoblotting, whole cell extracts were prepared using RIPA lysis buffer (25 mM Tris/HCl pH 7.6, 150 mM NaCl, 1% NP-40, 1% sodium deoxycholate, 0.1% SDS, EDTA-free protease inhibitor (Roche) and phosphatase inhibitors 2+3 (Sigma- Aldrich)). […] Protein extracts were quantified and normalized using the BCA assay (Thermo Scientific). […]
(§4) SLCs were ectopically expressed as fusions to a mutated FKBP domain, also known as the dTAG system. […]

[2] = target: T2, dTAG-HA SLC39A7 (Homo sapiens, UniProt Q92504+Q96SW2); assay: Targeted degradation of dTAG-tagged SLC39A7 (western blot); details: HAP1, 0.5 µM, 24, 48 or 72 hours
T2 construct: expressed in transfected cells
T2 sequence (Q92504 with tags, fused parts or gaps): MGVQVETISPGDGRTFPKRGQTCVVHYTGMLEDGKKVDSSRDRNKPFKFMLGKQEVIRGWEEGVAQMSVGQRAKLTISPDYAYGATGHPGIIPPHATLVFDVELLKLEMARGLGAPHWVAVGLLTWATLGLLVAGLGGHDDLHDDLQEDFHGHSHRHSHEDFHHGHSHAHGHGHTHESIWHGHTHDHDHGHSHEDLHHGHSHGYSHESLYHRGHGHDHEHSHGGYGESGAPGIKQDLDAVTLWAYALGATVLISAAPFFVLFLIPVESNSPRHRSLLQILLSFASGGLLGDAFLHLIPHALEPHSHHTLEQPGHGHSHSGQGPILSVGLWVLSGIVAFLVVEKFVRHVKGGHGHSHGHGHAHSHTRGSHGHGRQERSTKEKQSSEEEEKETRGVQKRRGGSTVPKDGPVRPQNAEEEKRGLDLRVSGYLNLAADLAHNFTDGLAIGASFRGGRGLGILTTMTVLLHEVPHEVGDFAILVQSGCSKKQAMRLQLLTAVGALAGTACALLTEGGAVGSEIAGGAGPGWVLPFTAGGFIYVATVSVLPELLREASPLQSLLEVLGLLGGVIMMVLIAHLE
T2 sequence (Q96SW2 whole entry): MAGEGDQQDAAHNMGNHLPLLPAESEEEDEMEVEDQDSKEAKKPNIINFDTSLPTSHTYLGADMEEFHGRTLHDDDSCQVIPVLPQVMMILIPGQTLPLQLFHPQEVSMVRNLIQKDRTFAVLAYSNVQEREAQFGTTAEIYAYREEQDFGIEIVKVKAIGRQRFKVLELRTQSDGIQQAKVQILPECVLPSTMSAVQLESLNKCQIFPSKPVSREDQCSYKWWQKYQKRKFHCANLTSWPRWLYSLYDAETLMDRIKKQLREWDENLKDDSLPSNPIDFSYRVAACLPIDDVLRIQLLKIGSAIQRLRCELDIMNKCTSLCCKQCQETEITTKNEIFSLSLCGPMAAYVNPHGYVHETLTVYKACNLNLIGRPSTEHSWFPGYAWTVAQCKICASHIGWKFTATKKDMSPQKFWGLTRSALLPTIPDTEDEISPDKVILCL
T2 sequence (Q16531 whole entry partner): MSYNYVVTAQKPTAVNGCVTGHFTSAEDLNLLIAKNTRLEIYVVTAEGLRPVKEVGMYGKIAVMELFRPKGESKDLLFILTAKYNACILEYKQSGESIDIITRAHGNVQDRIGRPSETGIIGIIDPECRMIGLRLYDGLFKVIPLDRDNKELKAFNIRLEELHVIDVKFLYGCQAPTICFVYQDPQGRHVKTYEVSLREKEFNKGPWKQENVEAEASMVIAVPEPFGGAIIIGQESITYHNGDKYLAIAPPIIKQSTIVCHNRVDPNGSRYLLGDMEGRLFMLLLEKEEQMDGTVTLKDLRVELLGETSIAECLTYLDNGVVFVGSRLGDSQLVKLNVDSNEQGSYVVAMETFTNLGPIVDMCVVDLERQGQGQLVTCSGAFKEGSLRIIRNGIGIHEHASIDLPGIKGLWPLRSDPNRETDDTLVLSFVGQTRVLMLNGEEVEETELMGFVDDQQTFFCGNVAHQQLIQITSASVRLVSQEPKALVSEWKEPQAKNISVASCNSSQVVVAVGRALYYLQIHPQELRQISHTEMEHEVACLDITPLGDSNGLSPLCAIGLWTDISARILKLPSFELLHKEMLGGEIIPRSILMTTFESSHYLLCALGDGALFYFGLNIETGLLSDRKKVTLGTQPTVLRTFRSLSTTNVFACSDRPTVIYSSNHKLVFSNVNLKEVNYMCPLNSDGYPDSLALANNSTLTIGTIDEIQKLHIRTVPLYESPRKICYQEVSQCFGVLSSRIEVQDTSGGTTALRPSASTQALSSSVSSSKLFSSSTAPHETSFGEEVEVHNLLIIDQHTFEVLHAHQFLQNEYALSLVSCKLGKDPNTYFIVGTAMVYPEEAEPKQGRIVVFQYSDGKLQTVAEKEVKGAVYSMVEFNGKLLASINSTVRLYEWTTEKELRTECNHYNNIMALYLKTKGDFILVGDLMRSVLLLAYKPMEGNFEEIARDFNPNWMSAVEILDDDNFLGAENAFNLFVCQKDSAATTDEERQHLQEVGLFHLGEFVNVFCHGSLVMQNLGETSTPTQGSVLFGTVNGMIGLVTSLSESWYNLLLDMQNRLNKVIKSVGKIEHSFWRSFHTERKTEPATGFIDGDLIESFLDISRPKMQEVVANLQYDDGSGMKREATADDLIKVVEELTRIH
Description: as §1, §2, §3, §4

[3] = target: T3, dTAG-HA SLC33A1 (Homo sapiens, UniProt O00400+Q96SW2); assay: Targeted degradation of dTAG-tagged SLC33A1 (western blot); details: HAP1, 0.5 µM
T3 construct: expressed in transfected cells
T3 sequence (O00400 with tags, fused parts or gaps): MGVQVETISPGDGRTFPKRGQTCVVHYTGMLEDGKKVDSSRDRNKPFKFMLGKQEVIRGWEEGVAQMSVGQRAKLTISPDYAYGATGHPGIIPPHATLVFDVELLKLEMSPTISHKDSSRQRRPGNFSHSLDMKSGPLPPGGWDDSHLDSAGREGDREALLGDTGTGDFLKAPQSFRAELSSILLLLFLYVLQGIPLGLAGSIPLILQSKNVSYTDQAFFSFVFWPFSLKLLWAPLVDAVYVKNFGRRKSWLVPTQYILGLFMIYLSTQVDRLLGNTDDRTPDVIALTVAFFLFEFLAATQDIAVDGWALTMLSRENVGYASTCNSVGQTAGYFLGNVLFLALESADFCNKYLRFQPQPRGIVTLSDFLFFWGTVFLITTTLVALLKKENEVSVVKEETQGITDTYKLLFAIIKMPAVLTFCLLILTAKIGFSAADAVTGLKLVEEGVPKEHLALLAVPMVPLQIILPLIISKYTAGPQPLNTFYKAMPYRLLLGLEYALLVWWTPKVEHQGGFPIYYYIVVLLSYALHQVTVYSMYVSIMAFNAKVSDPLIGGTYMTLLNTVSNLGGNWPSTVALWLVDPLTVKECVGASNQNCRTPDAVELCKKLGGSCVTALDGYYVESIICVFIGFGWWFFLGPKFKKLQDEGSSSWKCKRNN
T3 sequence (Q96SW2 whole entry): as the sequence (Q96SW2 whole entry) above
T3 sequence (Q16531 whole entry partner): as the sequence (Q16531 whole entry partner) above
Description: as §1, §2, §3, §4

[4] = target: T4, dTAG-HA SLC30A9 (Homo sapiens, UniProt Q6PML9+Q96SW2); assay: Targeted degradation of dTAG-tagged SLC30A9 (western blot); details: HAP1, 0.5 µM
T4 construct: expressed in transfected cells
T4 sequence (Q6PML9 with tags, fused parts or gaps): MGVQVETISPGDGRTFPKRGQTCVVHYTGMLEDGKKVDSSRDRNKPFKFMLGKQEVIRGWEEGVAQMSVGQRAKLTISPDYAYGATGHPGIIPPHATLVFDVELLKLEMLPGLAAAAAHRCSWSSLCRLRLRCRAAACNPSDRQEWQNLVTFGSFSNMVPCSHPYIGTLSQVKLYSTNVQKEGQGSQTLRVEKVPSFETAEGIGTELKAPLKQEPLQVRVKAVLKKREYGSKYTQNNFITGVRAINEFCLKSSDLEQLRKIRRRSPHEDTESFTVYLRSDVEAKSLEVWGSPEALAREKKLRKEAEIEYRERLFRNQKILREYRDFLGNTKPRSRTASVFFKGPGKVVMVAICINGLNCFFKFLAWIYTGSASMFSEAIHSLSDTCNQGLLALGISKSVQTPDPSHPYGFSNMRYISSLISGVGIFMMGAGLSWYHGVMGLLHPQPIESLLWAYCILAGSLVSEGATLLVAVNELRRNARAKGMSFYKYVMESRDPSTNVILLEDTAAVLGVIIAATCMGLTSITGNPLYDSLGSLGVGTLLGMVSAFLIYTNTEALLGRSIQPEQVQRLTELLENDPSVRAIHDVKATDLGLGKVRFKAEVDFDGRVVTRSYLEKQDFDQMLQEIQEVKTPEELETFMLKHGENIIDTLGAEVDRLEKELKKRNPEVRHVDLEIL
T4 sequence (Q96SW2 whole entry): as the sequence (Q96SW2 whole entry) above
T4 sequence (Q16531 whole entry partner): as the sequence (Q16531 whole entry partner) above
Description: as §1, §2, §3, §4

[5] = target: T5, Strep/HA SLC9A8 (Homo sapiens, UniProt Q9Y2E8); assay: Selectivity across SLC9 family: degradation of exogenous Strep/HA SLC9A8; details: HAP1; 250 or 750 nM; 16 hours
T5 construct: expressed in transfected cells; host or cells: HAP1 (lentiviral, pRRL Strep-HA; cDNA synthesized by Genescript)
T5 sequence (Q9Y2E8 whole entry): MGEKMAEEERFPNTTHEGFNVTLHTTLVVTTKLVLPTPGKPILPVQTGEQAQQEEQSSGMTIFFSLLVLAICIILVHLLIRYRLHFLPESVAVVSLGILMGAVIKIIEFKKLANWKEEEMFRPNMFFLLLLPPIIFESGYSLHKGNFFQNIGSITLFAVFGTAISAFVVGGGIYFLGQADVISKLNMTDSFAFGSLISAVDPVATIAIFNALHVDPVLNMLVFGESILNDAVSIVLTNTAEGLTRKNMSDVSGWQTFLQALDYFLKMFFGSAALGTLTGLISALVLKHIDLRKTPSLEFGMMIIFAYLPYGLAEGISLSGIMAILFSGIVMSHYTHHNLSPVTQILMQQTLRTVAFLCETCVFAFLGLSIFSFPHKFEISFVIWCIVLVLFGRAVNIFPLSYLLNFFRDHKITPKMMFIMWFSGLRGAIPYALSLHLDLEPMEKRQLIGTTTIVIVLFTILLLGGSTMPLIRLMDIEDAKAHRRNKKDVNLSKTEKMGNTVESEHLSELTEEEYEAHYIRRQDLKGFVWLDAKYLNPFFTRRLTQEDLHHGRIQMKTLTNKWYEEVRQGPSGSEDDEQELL
Description: (§5) (E) Selectivity of d9A1-2 was tested across HAP1 cell lines expressing Strep/HASLC9A1, 9A4, 9A5, 9A8, 9A2, 9B2, 9A6, 9A9, and 9A3. Cells were treated with varying concentrations of d9A1-2 for 16 hours, after which degradation of the exogenous SLCs was monitored.
(§6) SLC1A5, SLC2A1, SLC2A3, SLC16A1, SLC38A1, SLC38A2 were obtained as gateway-compatible pENTR/pDONR vectors from the Harvard PlasmID Repository. SLC39A7 was obtained from Dharmacon, GE Healthcare. The following vectors were synthesized by Genescript: SLC4A4, SLC7A3, SLC38A9, SLC25A1, SLC9A1, SLC9A2, SLC9A3, SLC9A4, SLC9A5, SLC9A6, SLC9A7, SLC9A8, and SLC9B2. SLC30A9, SLC33A1, SLC35B2, SLC25A26, and MTCH2 were a gift from the RESOLUTE consortium. cDNAs were transferred into gateway-compatible lentiviral expression vectors: pLX305 dTAG vectors (Addgene #91797/8) or pRRL Strep-HA (described previously43, EF1a promotor driven expression) using LR recombination (ThermoFisher Scientific). […]
as §3

[6] = target: T6, Strep/HA SLC9A3 (Homo sapiens, UniProt P48764); assay: Selectivity across SLC9 family: degradation of exogenous Strep/HA SLC9A3; details: HAP1; 250 or 750 nM; 16 hours
T6 construct: expressed in transfected cells; host or cells: HAP1 (lentiviral, pRRL Strep-HA; cDNA synthesized by Genescript)
Description: as §5, §6, §3

[7] = target: T7, Strep/HA SLC9A6 (Homo sapiens, UniProt Q92581); assay: Selectivity across SLC9 family: degradation of exogenous Strep/HA SLC9A6; details: HAP1; 250 or 750 nM; 16 hours
T7 construct: expressed in transfected cells; host or cells: HAP1 (lentiviral, pRRL Strep-HA; cDNA synthesized by Genescript)
T7 sequence (Q92581 1-669 isoform Q92581-1): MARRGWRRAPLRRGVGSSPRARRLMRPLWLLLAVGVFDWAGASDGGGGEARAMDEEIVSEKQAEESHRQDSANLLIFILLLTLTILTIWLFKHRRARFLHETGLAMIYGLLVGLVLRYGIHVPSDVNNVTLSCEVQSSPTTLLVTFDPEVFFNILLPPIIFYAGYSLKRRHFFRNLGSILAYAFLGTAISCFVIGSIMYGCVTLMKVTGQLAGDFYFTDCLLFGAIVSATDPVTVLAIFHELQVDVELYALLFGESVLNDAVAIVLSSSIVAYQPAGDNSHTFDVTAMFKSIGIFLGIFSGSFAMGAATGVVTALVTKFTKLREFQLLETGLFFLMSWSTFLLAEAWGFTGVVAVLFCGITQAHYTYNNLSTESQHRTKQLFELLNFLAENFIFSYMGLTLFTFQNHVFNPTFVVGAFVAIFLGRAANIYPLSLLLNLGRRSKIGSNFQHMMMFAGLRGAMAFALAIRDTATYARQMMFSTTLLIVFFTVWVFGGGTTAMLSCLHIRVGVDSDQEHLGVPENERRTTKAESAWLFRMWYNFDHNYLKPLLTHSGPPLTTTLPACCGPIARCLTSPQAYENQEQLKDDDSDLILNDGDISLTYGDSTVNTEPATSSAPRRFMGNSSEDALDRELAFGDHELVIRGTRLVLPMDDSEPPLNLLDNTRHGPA
Description: as §5, §6, §3

reversibility of degradation of the target SLC [1] | reversibility of degradation of the target SLC [2] | initiation of degradation (time course) [3] | initiation of degradation (time course) [4] | abundance of exogenous SLC9A8 [5] | abundance of exogenous SLC9A3 [6] | abundance of exogenous SLC9A6 [7] | Compound
reversible degradation | reversible degradation | ≤ 6 h | ≤ 6 h | – | – | – | CC[C@H](C(=O)N1CCCC[C@H]1C(=O)O[C@H](CCc1ccc(OC)c(OC)c1)c1ccccc1OCC(=O)NCCCOCCOCCOCCCNC(=O)COc1cccc2c1C(=O)N(C1CCC(=O)NC1=O)C2=O)c1cc(OC)c(OC)c(OC)c1 (stereo partly shown) [dTAG7]
– | – | – | – | not significantly affected | not significantly affected | not significantly affected | Cc1cc(-c2ccc(C(=O)NCCOCCOCCOCCOCCNc3cccc4c3C(=O)N(C3CCC(=O)NC3=O)C4=O)cc2N2CCC(c3[nH]cnc3C)CC2)ccc1F (stereo not shown) [d9A1-2]

Source: patent US20230241226A1, “COMPOUNDS FOR TARGETED DEGRADATION OF CARRIER PROTEINS AND USES THEREOF” (CeMM - Forschungszentrum für Molekulare Medizin GmbH, priority 2019, published 2023)
